The source of these data is ChEMBL document CHEMBL1142747, “Prostatic acid phosphatase in cloacal derivatives” (Bioorg Med Chem Lett, 2005).

A short description of data set [1]: Half life of ECA-ATL in buffer at pH 7.4. Format: ADME.
The nature of data set [2]: Half life of ECA-ATL in serum. The conditions noted are these: human. It counts as ADME, cell-free.

Consider `C=C(CC)C(=O)c1ccc(OCC(=O)OCCOCCO)c(Cl)c1Cl`, for which the half-life in data set [1] was 110 h; in data set [2] it was under 0.0333 h.
In the case of `C=C(CC)C(=O)c1ccc(OCC(=O)OCCOCCOCCOCCO)c(Cl)c1Cl`, the half-life in data set [1] is 130 h; in data set [2], under 0.0333 h.
Turning to `C=C(CC)C(=O)c1ccc(OCC(=O)OCCOCCOCCOCCOCCOCCO)c(Cl)c1Cl`, the half-life in data set [1] is 120 h; in data set [2], under 0.0333 h.
For the compound `C=C(CC)C(=O)c1ccc(OCC(=O)OC(CNC(C)C)COc2ccc(CC(N)=O)cc2)c(Cl)c1Cl` (stereo not drawn), the figures for the half-life in data set [1] and in data set [2] were 14 h and 0.5 h, respectively.
